Our source for the relative viability values is the supplement of paper PMC10307832.

Common to all, as to assay: relative viability (nuclei count vs DMSO), 5 days (fraction); higher = more cells survive
Compound in the assay “Kobe2602 + Tozasertib”: C1=CC(=CC=C1NC(=S)NNC2=C(C=C(C=C2[N+](=O)[O-])C(F)(F)F)[N+](=O)[O-])F [Kobe2602] + Cc1cc(Nc2cc(N3CCN(C)CC3)nc(Sc3ccc(NC(=O)C4CC4)cc3)n2)n[nH]1 [Tozasertib] (partner 0.1 µM)
The essentials:
(§1)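 Relative viability equals treated-well nuclei counts divided by vehicle-well nuclei counts. Counts came from 4× images of lung cancer cell lines grown in 1536-well plates for 5 days after pin-tool dosing on the day after seeding. Dosing used one drug alone or a fixed anchor-drug dose plus five library-drug doses (not always all listed) in √10 steps, and values are medians of duplicate plates.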

Compound in the assay “Zosuquidar + Dasatinib”: O[C@@H](COc1cccc2ncccc12)CN1CCN([C@@H]2c3ccccc3[C@@H]3[C@H](c4ccccc42)C3(F)F)CC1 [Zosuquidar] + Cc1nc(Nc2ncc(C(=O)Nc3c(C)cccc3Cl)s2)cc(N2CCN(CCO)CC2)n1 [Dasatinib] (partner 0.075 µM)
In short, it runs like this: as §1

Compound in assay [1]: COc1cc2nccc(Oc3ccc(NC(=O)C4(C(=O)Nc5ccc(F)cc5)CC4)cc3)c2cc1OC [Cabozantinib] + CC(=O)Nc1cccc(-n2c(=O)n(C3CC3)c(=O)c3c(Nc4ccc(I)cc4F)n(C)c(=O)c(C)c32)c1 [Trametinib] (partner 0.02 µM)
In short, it runs like this:
as §1

Compound in assay [2]: COc1cc2nccc(Oc3ccc(NC(=O)C4(C(=O)Nc5ccc(F)cc5)CC4)cc3)c2cc1OC [Cabozantinib] + Nc1nc2[nH]cc(CCc3ccc(C(=O)N[C@@H](CCC(=O)O)C(=O)O)cc3)c2c(=O)[nH]1 [Pemetrexed] (partner 0.2 µM)
The essentials: as §1

Regarding HARA, the relative viability with Kobe2602 + Tozasertib (first compound 0.2 µM) turned out to be 0.117; in the assay with Kobe2602 + Tozasertib (first compound 0.6325 µM), 0.102; with Kobe2602 + Tozasertib (first compound 2 µM), 0.122; with Kobe2602 + Tozasertib (first compound 6.325 µM) it was 0.508; with Kobe2602 + Tozasertib (first compound 20 µM) it was 0.123; with Zosuquidar + Dasatinib (first compound 0.01 µM), 0.252. In addition, the relative viability came to 0.26 in the assay with Zosuquidar + Dasatinib (first compound 0.1 µM); 0.257 in the assay with Zosuquidar + Dasatinib (first compound 0.3162 µM); 0.27 with Zosuquidar + Dasatinib (first compound 1 µM); 0.749 in assay [1] (first compound 0.02 µM); 0.772 in assay [1] (first compound 0.06325 µM); 0.883 in assay [1] (first compound 0.6325 µM). In addition, the relative viability in assay [1] (first compound 2 µM) came out at 0.633; in assay [2] (first compound 0.02 µM), 0.244; in assay [2] (first compound 0.06325 µM) it was 0.234; in assay [2] (first compound 0.6325 µM), 0.279; in assay [2] (first compound 2 µM), 0.226.

Turning to HCC-15, the relative viability was found to be 0.351 in the assay with Kobe2602 + Tozasertib (first compound 0.2 µM); 0.377 in the assay with Kobe2602 + Tozasertib (first compound 0.6325 µM); 0.299 with Kobe2602 + Tozasertib (first compound 2 µM); 0.425 with Kobe2602 + Tozasertib (first compound 6.325 µM); 0.431 in the assay with Kobe2602 + Tozasertib (first compound 20 µM); 0.559 with Zosuquidar + Dasatinib (first compound 0.01 µM). The relative viability was 0.581 in the assay with Zosuquidar + Dasatinib (first compound 0.03162 µM); 0.592 with Zosuquidar + Dasatinib (first compound 0.1 µM); 0.663 with Zosuquidar + Dasatinib (first compound 0.3162 µM); 0.612 with Zosuquidar + Dasatinib (first compound 1 µM); 0.417 in assay [1] (first compound 0.02 µM); 0.373 in assay [1] (first compound 0.06325 µM). Further, the relative viability turned out to be 0.36 in assay [1] (first compound 0.2 µM); 0.356 in assay [1] (first compound 0.6325 µM); 0.314 in assay [1] (first compound 2 µM); 0.231 in assay [2] (first compound 0.02 µM); 0.228 in assay [2] (first compound 0.06325 µM); 0.226 in assay [2] (first compound 0.2 µM). In addition, the relative viability in assay [2] (first compound 0.6325 µM) was determined as 0.223; in assay [2] (first compound 2 µM) it was 0.215.

HCC-44: the relative viability with Kobe2602 + Tozasertib (first compound 0.2 µM) turned out to be 0.906; with Kobe2602 + Tozasertib (first compound 0.6325 µM), 0.838; in the assay with Kobe2602 + Tozasertib (first compound 2 µM) it was 0.92; with Kobe2602 + Tozasertib (first compound 6.325 µM), 0.861; with Kobe2602 + Tozasertib (first compound 20 µM), 0.687; in assay [1] (first compound 0.02 µM), 1.04. The relative viability stood at 1.15 in assay [1] (first compound 0.06325 µM); 1.21 in assay [1] (first compound 0.2 µM); 1.06 in assay [1] (first compound 0.6325 µM); 1.04 in assay [1] (first compound 2 µM); 0.659 in assay [2] (first compound 0.02 µM); 0.609 in assay [2] (first compound 0.06325 µM). Besides, the relative viability in assay [2] (first compound 0.2 µM) was determined as 0.735; in assay [2] (first compound 0.6325 µM) it was 0.701; in assay [2] (first compound 2 µM), 0.724.

As to HCC-78, the relative viability in the assay with Kobe2602 + Tozasertib (first compound 0.2 µM) came out at 0.428; with Kobe2602 + Tozasertib (first compound 0.6325 µM), 0.413; in the assay with Kobe2602 + Tozasertib (first compound 2 µM) it was 0.369; in the assay with Kobe2602 + Tozasertib (first compound 6.325 µM), 0.314; with Kobe2602 + Tozasertib (first compound 20 µM) it was 0.525; in the assay with Zosuquidar + Dasatinib (first compound 0.01 µM), 0.553. Also, the relative viability stood at 0.386 in the assay with Zosuquidar + Dasatinib (first compound 0.03162 µM); 0.331 with Zosuquidar + Dasatinib (first compound 0.3162 µM); 0.254 in the assay with Zosuquidar + Dasatinib (first compound 1 µM); 0.515 in assay [1] (first compound 0.06325 µM); 0.412 in assay [1] (first compound 0.2 µM); 0.318 in assay [1] (first compound 0.6325 µM). In addition, the relative viability in assay [1] (first compound 2 µM) was determined as 0.321; in assay [2] (first compound 0.06325 µM), 0.941; in assay [2] (first compound 0.2 µM) it was 0.908; in assay [2] (first compound 0.6325 µM) it was 0.926; in assay [2] (first compound 2 µM) it was 0.89.

Turning to HCC-366, the relative viability turned out to be 0.0819 in the assay with Kobe2602 + Tozasertib (first compound 0.2 µM); 0.0969 with Kobe2602 + Tozasertib (first compound 0.6325 µM); 0.0807 with Kobe2602 + Tozasertib (first compound 2 µM); 0.0437 with Kobe2602 + Tozasertib (first compound 6.325 µM); 0.0481 in the assay with Kobe2602 + Tozasertib (first compound 20 µM); 0.608 in the assay with Zosuquidar + Dasatinib (first compound 0.01 µM). In addition, the relative viability with Zosuquidar + Dasatinib (first compound 0.03162 µM) was 0.468; in the assay with Zosuquidar + Dasatinib (first compound 0.1 µM) it was 0.496; in the assay with Zosuquidar + Dasatinib (first compound 0.3162 µM) it was 0.767; with Zosuquidar + Dasatinib (first compound 1 µM), 0.704; in assay [1] (first compound 0.02 µM) it was 0.409; in assay [1] (first compound 0.06325 µM), 0.334. The relative viability in assay [1] (first compound 0.2 µM) is 0.35; in assay [1] (first compound 0.6325 µM), 0.285; in assay [1] (first compound 2 µM) it was 0.272; in assay [2] (first compound 0.02 µM), 0.189; in assay [2] (first compound 0.06325 µM) it was 0.214; in assay [2] (first compound 0.2 µM), 0.173. The relative viability worked out at 0.156 in assay [2] (first compound 0.6325 µM) and 0.15 in assay [2] (first compound 2 µM).
